Laboratory results published in patent US10174202B2, “Dyes with phosphinic acid, phosphinate, phosphonate and phosphonamidate substituents as auxochromic groups and methods for preparing the same” (Max-Planck-Gesellschaft zur Foerderung der Wissenschaften …, priority 2017, dated 2019).
“And” between values parts separate entries of the source, which are not always exact repeats. Identical values can stand only once. Counter-ions that a name gives are not always drawn. Marks after values point to notes of the source that are not given here.

Columns and labels:
[1] = Absorption spectroscopy (UV/Vis); assay type: physicochemical
Description: (§1) Absorption spectra were recorded with a Varian Cary 4000 UV-Vis double-beam spectrophotometer (Agilent Technologies, USA). For the determination of the absorption spectra, quartz cells with a 1 cm path length were used. Emission spectra and fluorescence quantum yield were obtained on a Quantaurus-QY Absolute PL quantum yield spectrometer C11347 (Hamamatsu Photonics, Japan) or on a Varian Cary Eclipse fluorescence spectrometer (Agilent Technologies, USA).

[2] = Emission spectra and fluorescence quantum yield; assay type: physicochemical
Description: as §1

Fluorescence lifetime = assay type: physicochemical

For `CN(C)c1ccc2c(P(=O)(Oc3ccccc3C(=O)[O-])N(C)C)c3ccc(=[N+](C)C)cc-3oc2c1` (stereo not shown) [Compound 9, 2-[[3,6-Bis(dimethylamino)-9H-xanthenylium-9yl](dimethylamino)phosphoryloxy]-benzoate], the Absorption max. ([1]; in aq. PBS, pH 7.4) was 603 nm, the “ε at absorption max.” value ([1]; in aq. PBS, pH 7.4) was 69000 M⁻¹ cm⁻¹ and the Absorption max. ([1]; in methanol) was 589 nm. For the same compound, the “ε at absorption max.” value ([1]; in methanol) was 49000 M⁻¹ cm⁻¹, the Emission max. ([2]; in aq. PBS, pH 7.4) was 638 nm and the “QY (fluorescence quantum yield, Φfl)” value ([2]; in aq. PBS, pH 7.4) was 0.09. The Stokes shift ([2]; in aq. PBS, pH 7.4) was 35 nm, the Emission max. ([2]; in methanol) was 622 nm and the “QY (fluorescence quantum yield, Φfl)” value ([2]; in methanol) was 0.36. The Stokes shift ([2]; in methanol) was 33 nm, the fluorescence lifetime (Fluorescence lifetime; in aq. PBS, pH 7.4) was 1.88 ns and the Stability (Stability of the dyes) was “moderate”.
With `CCOP(=O)(c1c2ccc(=[N+](C)C)cc-2oc2cc(N(C)C)ccc12)N(C)CCC(=O)O.O=C([O-])C(F)(F)F` (stereo not shown) [Compound 10] the Absorption max. ([1]; in acetonitrile) was 615 nm, the “ε at absorption max.” value ([1]; in acetonitrile) was 22224 M⁻¹ cm⁻¹ and the Absorption max. ([1]; in aq. PBS, pH 7.4) was 625 nm. The “ε at absorption max.” value ([1]; in aq. PBS, pH 7.4) was 13816 M⁻¹ cm⁻¹, the Emission max. ([2]; in acetonitrile) was 652 nm and the “QY (fluorescence quantum yield, Φfl)” value ([2]; in acetonitrile) was 0.46. For the same compound, the Stokes shift ([2]; in acetonitrile) was 37 nm, the Emission max. ([2]; in aq. PBS, pH 7.4) was 670 nm and the “QY (fluorescence quantum yield, Φfl)” value ([2]; in aq. PBS, pH 7.4) was 0.15. For the same compound, the Stokes shift ([2]; in aq. PBS, pH 7.4) was 45 nm and the stability of solutions (Stability of the dyes; protic solvents (MeOH, H2O), particularly in the presence of acids, forms compound 11) was “spontaneously decompose”.
In the case of `CC[N+](CC)=c1ccc2c(P(=O)(OC)OC)c3c(oc-2c1)-c1ccc(N(C)C)cc1CC3.O=C([O-])C(F)(F)F` [Compound 20, 10-(Diethylamino)-7-(dimethoxyphosphoryl)-3-(dimethylamino)-6,7-dihydro-5H-benzo[c]xanthenylium trifluoroacetate], the Absorption max. ([1]; in acetonitrile) is reported as 681 nm, the “ε at absorption max.” value ([1]; in acetonitrile) is reported as 40000 M⁻¹ cm⁻¹ and the Absorption max. ([1]; in aq. PBS, pH 7.4) is reported as 693 nm. The “ε at absorption max.” value ([1]; in aq. PBS, pH 7.4) was 29000 M⁻¹ cm⁻¹, the Stokes shift ([2]; in acetonitrile) was 56 nm and the Emission max. ([2]; in acetonitrile, trifluoroacetate) was 737 nm and 754 nm. The Emission max. ([2]; in aq. PBS, pH 7.4) was 754 nm, the “QY (fluorescence quantum yield, Φfl)” value ([2]; in aq. PBS, pH 7.4) was 0.02 and the Stokes shift ([2]; in aq. PBS, pH 7.4) was 61 nm. It also gave a fluorescence lifetime (Fluorescence lifetime; in acetonitrile) of 1.50 ns.
With `CC(C)OP(=O)(OC(C)C)C1=C2C=CC(=[N+](C)C)C=C2C(C)(C)c2cc(N(C)C)ccc21` [Compound 24, 9-(Diisopropoxyphosphoryl)-3,6-bis(dimethylamino)-10,10-dimethyl-9,10-dihydro-anthracenylium trifluoromethanesulfonate] the Stability (Stability of the dyes) was “moderate”.
For `C=CCOP(=O)(C1=C2C=CC(=[N+](C)C)C=C2C(C)(C)c2cc(N(C)C)ccc21)N(C(C)C)C(C)C` (stereo not shown) [Compound 25, 9-[(Allyloxy)(diisopropylamino)phosphoryl]-3,6-bis(dimethylamino)-10,10-dimethyl-9,10-dihydroanthracenylium trifluoromethanesulfonate], the Stability (Stability of the dyes) was “poor”.
For `C=CCOP(=O)(C1=c2cc3c(cc2C(C)(C)c2cc4c(cc21)CCCN4CCOC)=[N+](CCOC)CCC3)N(C(C)C)C(C)C` (stereo not shown) [Compound 26, 6-[(Allyloxy)(diisopropylamino)phosphoryl]-1,11-bis(2-methoxyethyl)-13,13-dimethyl-1,2,3,4,6,8,9,10,11,13-decahydrobenzo[1,2-g:5,4-g′]diquinolin-6-ylium trifluoroacetate], the Absorption max. ([1]; in acetonitrile) was 724 nm, the “ε at absorption max.” value ([1]; in acetonitrile) was 46700 M⁻¹ cm⁻¹ and the Absorption max. ([1]; in aq. PBS, pH 7.4) was 734 nm. The “ε at absorption max.” value ([1]; in aq. PBS, pH 7.4) was 34700 M⁻¹ cm⁻¹, the Emission max. ([2]; in acetonitrile) was 812 nm and the “QY (fluorescence quantum yield, Φfl)” value ([2]; in acetonitrile) was 0.08. The Stokes shift ([2]; in acetonitrile) was 88 nm, the Emission max. ([2]; in aq. PBS, pH 7.4) was 860 nm and the “QY (fluorescence quantum yield, Φfl)” value ([2]; in aq. PBS, pH 7.4) was 0.05. For the same compound, the Stokes shift ([2]; in aq. PBS, pH 7.4) was 126 nm and the Stability (Stability of the dyes) was “poor”.
For `COP(=O)([C+]1c2ccc(N(C)C)cc2-c2cccc3c(N(C)C)ccc1c23)N(C(C)C)C(C)C.O=C([O-])C(F)(F)F` (stereo not shown) [Compound 28, 7-[(Diisopropylamino)(methoxy)phosphoryl]-4,10-bis(dimethylamino)-7H-benzo[de]anthracen-7-ylium trifluoroacetate], the Absorption max. ([1]; in aq. PBS, pH 7.4) was 644 nm, the “ε at absorption max.” value ([1]; in aq. PBS, pH 7.4) was 7600 M⁻¹ cm⁻¹ and the Emission max. ([2]; in aq. PBS, pH 7.4) was 782 nm. For the same compound, the “QY (fluorescence quantum yield, Φfl)” value ([2]; in aq. PBS, pH 7.4) was 0.04, the Stokes shift ([2]; in aq. PBS, pH 7.4) was 138^b nm and the Stability (Stability of the dyes) was “poor”.
